According to patent publication US20210353579A1, “HIGH PENETRATION COMPOSITIONS AND USES THEREOF” (Techfields Pharma Co., Ltd., priority 2006, published 2021):
≈ marks a conversion by molar mass, not a printed value.

Experiments:
[1] = tested on: mice; test: Analgesic activity, acetic acid writhing; format: in vivo; details: 30 min before acetic acid
Protocol: The prodrug compounds are administered either transdermally or orally. The parent compounds are administered orally. The number of writhing that occurred when mice are administered the acetic acid solution are counted, and the rate of inhibition based on the control group which was not pretreated with any test compounds is calculated. […] The A group is the control group.

[2] = Solubility in water / aqueous solubility of HPPs and parent drugs; details: water
[3] = tested on: rats; test: Antipyretic activity, E. coli suspension as pyrogen; format: in vivo; details: in °C (unit assumed)
Protocol: Rats are administered with sterilized E. coli suspension as a pyrogen. Each group of rats are administered with a prodrug compounds or parent compounds at a dosage specified below. The prodrug compounds are administered either orally or transdermally. The parent compounds are administered orally.

[4] = Plasma levels after transdermal administration to hairless mice; format: in vivo; details: for t, time to peak plasma level after parent compound: parent compound administered (time when taken orally); for Peak plasma concentration after parent compound: parent compound administered, hairless mice
Protocol: Tested compounds (20% solution or suspension in 1 mL isopropanol) are administered transdermally to the skin of intact hairless mice. The plasma levels of the parent compounds are determined by HPLC.

[5] = in vivo; details: rat
Protocol: The acute toxicity of the prodrug compounds and parent compounds are measured by LD50 of rat.

[6] = tested on: human skin tissue; details: human, 20 %, pH 7.4
[7] = tested on: normal rats; test: Blood glucose in normal rats, transdermal; format: in vivo, rat; details: for Blood glucose, Average: normal rats (second Average line of Table 24), average second to fifth week, equal to 20 mg/kg of NSAIAs once per day; for Blood glucose, Baseline: normal rats (second Baseline line of Table 24), equal to 20 mg/kg of NSAIAs
Text: HPPs lower blood glucose level in rat models (SLAC/GK, type 2 diabetes, n=7). 50% acetone solution of diethylaminoethyl acetylsalicylate.acetylsalicylic acid salt (P-1, in acetone); 4-acetamidophenyl salicylyldimethylaminobutyrate.HCl (P-6), diethylaminoethyl 5-(2,4-difluorophenyl) acetylsalicylate.5-(2,4-difluorophenyl).acetylsalicylic acid salt (P-8), diethylaminoethyl salicylsalicylate.AcOH (P-9), diethylaminoethyl salicylate.AcOH (P-10), diethylaminoethyl 5-acetamido-acetylsalicylate (P-58), diethylaminoethyl acetylsalicylsalicylate.acetylsalicylsalicylic acid salt (P-59), diethylaminoethyl acetylsalicylsalicylate.acetylsalicylsalicylsalicylic acid salt (P-60) (equal to of 20 mg/kg of NSAIAs) are administered transdermally to the backs (about 1.5 cm^2) of rats (fur was shaved) once per day (at 8 am) for 5 weeks. The blood glucose levels are measured once every 3 days at 3 pm (no fasting) from the second week to the fifth week (Table 24). The blood lipid levels are measured at the end of the fifth week (Table 25). […]

[8] = tested on: rats (SLAC/GK, type 2 diabetes); test: Blood lipid in type 2 diabetes rats, oral with food; format: in vivo, rat; details: for Cholesterol (HDL), Baseline / Cholesterol (total), Baseline / Triglycerides, Baseline: equal to 20 mg/kg of NSAIAs; for Cholesterol (HDL), Average / Cholesterol (total), Average / Triglycerides, Average: end of the fifth week, equal to 20 mg/kg of NSAIAs every day
Text: (§1) 20% acetone solution of diethylaminoethyl acetylsalicylate.acetylsalicylic acid salt (P-1, in acetone); 4-acetamidophenyl salicylyldimethylaminobutyrate.HCl (P-6), diethylaminoethyl 5-(2,4-difluorophenyl) acetylsalicylate.5-(2,4-difluorophenyl) acetylsalicylic acid salt (P-8), diethylaminoethyl salicylsalicylate.AcOH (P-9), diethylaminoethyl salicylate.AcOH (P-10), diethylaminoethyl 5-acetamido-acetylsalicylate (P-58), diethylaminoethyl acetylsalicylsalicylate. acetylsalicylsalicylic acid salt (P-59), diethylaminoethyl acetylsalicylsalicylate. acetylsalicylsalicylsalicylic acid salt (P-60) (equal to of 20 mg/kg of NSAIAs) were mixed with food and were orally administered to the rats (SLAC/GK, type 2 diabetes, n=7) with food every day for 5 weeks. The blood glucose levels were measured once every 3 days at 3 pm (no fasting) from the second week to the fifth week. The blood lipid levels were measured at the end of the fifth week.

[9] = tested on: rats (SLAC/GK, type 2 diabetes); test: Blood glucose in type 2 diabetes rats, transdermal; format: in vivo, rat; details: diabetic rats (SLAC/GK); for Blood glucose, Average: average second to fifth week, no fasting, equal to 20 mg/kg of NSAIAs once per day for 5 weeks; for Blood glucose, Baseline: equal to 20 mg/kg of NSAIAs once per day
Text: (§2) HPPs lower blood glucose level in rat models (SLAC/GK, type 2 diabetes, n=7). 50% acetone solution of diethylaminoethyl acetylsalicylate.acetylsalicylic acid salt (P-1, in acetone); 4-acetamidophenyl salicylyldimethylaminobutyrate.HCl (P-6), diethylaminoethyl 5-(2,4-difluorophenyl) acetylsalicylate.5-(2,4-difluorophenyl).acetylsalicylic acid salt (P-8), diethylaminoethyl salicylsalicylate.AcOH (P-9), diethylaminoethyl salicylate.AcOH (P-10), diethylaminoethyl 5-acetamido-acetylsalicylate (P-58), diethylaminoethyl acetylsalicylsalicylate.acetylsalicylsalicylic acid salt (P-59), diethylaminoethyl acetylsalicylsalicylate.acetylsalicylsalicylsalicylic acid salt (P-60) (equal to of 20 mg/kg of NSAIAs) are administered transdermally to the backs (about 1.5 cm^2) of rats (fur was shaved) once per day (at 8 am) for 5 weeks. The blood glucose levels are measured once every 3 days at 3 pm (no fasting) from the second week to the fifth week (Table 24). The blood lipid levels are measured at the end of the fifth week (Table 25).

[10] = tested on: rats (SLAC/GK, type 2 diabetes); test: Blood lipid in type 2 diabetes rats, transdermal; format: in vivo, rat; details: for Cholesterol (HDL), Baseline / Cholesterol (total), Baseline / Triglycerides, Baseline: equal to 20 mg/kg of NSAIAs; for Cholesterol (HDL), Average / Cholesterol (total), Average / Triglycerides, Average: end of the fifth week, equal to 20 mg/kg of NSAIAs once per day
Text: as §2

[11] = tested on: mice (SLAC:NOD-IDDM, type 1 diabetes); test: Blood glucose in type 1 diabetes mice, transdermal; format: in vivo, mouse; details: for Blood glucose, Average: average fourth to seventh week, no fasting, equal to 30 mg/kg of NSAIAs once per day for 7 weeks; for Blood glucose, Baseline: equal to 30 mg/kg of NSAIAs
Text: The pro-drugs in this invention lower blood glucose levels in mouse models (SLAC:NOD-IDDM, type 1 diabetes, n=7). 50% acetone solution of diethylaminoethyl acetylsalicylate.acetylsalicylic acid salt (P-1, in acetone); 4-acetamidophenyl salicylyldimethylaminobutyrate.HCl (P-6), diethylaminoethyl 5-(2,4-difluorophenyl) acetylsalicylate.5-(2,4-difluorophenyl) acetylsalicylic acid salt (P-8), diethylaminoethyl salicylsalicylate.AcOH (P-9), diethylaminoethyl salicylate.AcOH (P-10), diethylaminoethyl 5-acetamido-acetylsalicylate (P-58), diethylaminoethyl acetylsalicylsalicylate. acetylsalicylsalicylic acid salt (P-59), diethylaminoethyl acetylsalicylsalicylate. acetylsalicylsalicylsalicylic acid salt (P-60) (equal to of 30 mg/kg of NSAIAs) were administered transdermally to the backs (about 1.5 cm^2) of mice (fur was shaved) once per day (at 8 am) for 7 weeks. The blood glucose levels were measured once every 3 days at 3 pm (no fasting) from the fourth week to the seventh week.

[12] = tested on: normal rats; test: Blood glucose in normal rats, oral with food; format: in vivo, rat; details: for Blood glucose, Normal rats, Average: average second to fifth week, equal to 20 mg/kg of NSAIAs every day; for Blood glucose, Normal rats, Baseline: equal to 20 mg/kg of NSAIAs
[13] = tested on: rats (SLAC/GK, type 2 diabetes); test: Blood glucose in type 2 diabetes rats, oral with food; format: in vivo, rat; details: for Blood glucose, Diabetic rats, Average: average second to fifth week, no fasting, equal to 20 mg/kg of NSAIAs every day for 5 weeks; for Blood glucose, Diabetic rats, Baseline: equal to 20 mg/kg of NSAIAs
Text: as §1

[14] = Mus musculus, po, 50 mg/kg orally, read-out: % (rate of writhing inhibition)
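Throughout, for LD50: acute toxicity in rats expressed as LD50, determined for both prodrugs and their parent compounds.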

CC(C(=O)O)c1cccc(Oc2ccccc2)c1 (stereo not drawn) [Fenoprofen, 2-(3-phenoxyphenyl) propionic acid, reference compound]
No. of Writhing ([1]; 50 mg/kg orally): 13.2
inhibition at 50 mg/kg [1, 14]: 62%
solubility [2]: 100 µg/mL (≈ 413 µM)
body temperature, t = 0 min ([3]; 50 mg/kg orally): 37.22 ± 0.07
body temperature, t = 90 min ([3]; 50 mg/kg orally): 36.82 ± 0.06
body temperature, t = 180 min ([3]; 50 mg/kg orally): 36.80 ± 0.05
body temperature, t = 270 min ([3]; 50 mg/kg orally): 36.77 ± 0.08
t, time to peak plasma level after parent compound [4]: 1 to 2 h
Peak plasma concentration after parent compound [4]: 1 mg/L
LD50 [5]: 800 mg/kg
In vitro penetration rate (apparent flux), parent compounds [6]: <1 μg/cm^2/h

CC(=O)Oc1ccccc1C(=O)Oc1ccccc1C(=O)Oc1ccccc1C(=O)O.CCN(CC)CCOC(=O)c1ccccc1OC(=O)c1ccccc1OC(C)=O [P-60, diethylaminoethyl acetylsalicylsalicylate.acetylsalicylsalicylsalicylic acid salt]
Blood glucose, Average [7]: 7.5 ± 1 mmol/L
Blood glucose, Baseline [7]: 6.6 ± 1 mmol/L
Cholesterol (HDL), Baseline [8]: 1.5 ± 0.2 mmol/L
Cholesterol (total), Baseline [8]: 7.5 ± 0.5 mmol/L
Triglycerides, Baseline [8]: 5.2 ± 0.5 mmol/L
Cholesterol (HDL), Average [8]: 1.6 ± 0.2 mmol/L
Cholesterol (total), Average [8]: 5.5 ± 0.3 mmol/L
Triglycerides, Average [8]: 2.5 ± 0.2 mmol/L
Blood glucose, Average [9]: 8.6 ± 1 mmol/L
Blood glucose, Baseline [9]: 15.5 ± 3 mmol/L
Cholesterol (HDL), Baseline [10]: 1.3 ± 0.2 mmol/L
Cholesterol (total), Baseline [10]: 7.3 ± 0.6 mmol/L
Triglycerides, Baseline [10]: 5.3 ± 0.6 mmol/L
Cholesterol (HDL), Average [10]: 1.5 ± 0.2 mmol/L
Cholesterol (total), Average [10]: 5.6 ± 0.3 mmol/L
Triglycerides, Average [10]: 2.5 ± 0.2 mmol/L
Blood glucose, Average [11]: 8.6 ± 1 mmol/L
Blood glucose, Baseline [11]: 25.5 ± 3 mmol/L
Blood glucose, Normal rats, Average [12]: 7.3 ± 1 mmol/L
Blood glucose, Normal rats, Baseline [12]: 6.8 ± 1 mmol/L
Blood glucose, Diabetic rats, Average [13]: 7.9 ± 1 mmol/L
Blood glucose, Diabetic rats, Baseline [13]: 16.5 ± 3 mmol/L

CC(=O)Oc1ccc(-c2ccc(F)cc2F)cc1C(=O)O.CCN(CC)CCOC(=O)c1cc(-c2ccc(F)cc2F)ccc1OC(C)=O [P-8, diethylaminoethyl 5-(2,4-difluorophenyl) acetylsalicylate.5-(2,4-difluorophenyl) acetylsalicylic acid salt]
Blood glucose, Average [7]: 6.8 ± 1 mmol/L
Blood glucose, Baseline [7]: 7.1 ± 1 mmol/L
Cholesterol (HDL), Baseline [8]: 1.4 ± 0.2 mmol/L
Cholesterol (total), Baseline [8]: 7.8 ± 0.6 mmol/L
Triglycerides, Baseline [8]: 5.6 ± 0.7 mmol/L
Cholesterol (HDL), Average [8]: 1.3 ± 0.2 mmol/L
Cholesterol (total), Average [8]: 5.7 ± 0.3 mmol/L
Triglycerides, Average [8]: 1.8 ± 0.2 mmol/L
Blood glucose, Average [9]: 8.1 ± 1 mmol/L
Blood glucose, Baseline [9]: 17.1 ± 3 mmol/L
Cholesterol (HDL), Baseline [10]: 1.6 ± 0.2 mmol/L
Cholesterol (total), Baseline [10]: 7.6 ± 0.6 mmol/L
Triglycerides, Baseline [10]: 5.6 ± 0.6 mmol/L
Cholesterol (HDL), Average [10]: 1.5 ± 0.2 mmol/L
Cholesterol (total), Average [10]: 5.3 ± 0.3 mmol/L
Triglycerides, Average [10]: 1.9 ± 0.2 mmol/L
Blood glucose, Average [11]: 9.1 ± 1 mmol/L
Blood glucose, Baseline [11]: 29.1 ± 5 mmol/L
Blood glucose, Normal rats, Average [12]: 6.8 ± 1 mmol/L
Blood glucose, Normal rats, Baseline [12]: 7.0 ± 1 mmol/L
Blood glucose, Diabetic rats, Average [13]: 7.3 ± 1 mmol/L
Blood glucose, Diabetic rats, Baseline [13]: 16.1 ± 3 mmol/L

CC(=O)Oc1ccccc1C(=O)O [Aspirin, acetylsalicylic acid, reference compound]
No. of Writhing ([1]; 50 mg/kg orally): 18.2
No. of Writhing ([1]; 100 mg/kg orally): 13.2
inhibition at 50 mg/kg [1, 14]: 45%
inhibition at 100 mg/kg ([1]; Mus musculus, po, 100 mg/kg orally, read-out: % (rate of writhing inhibition)): 60%
solubility [2]: 10 µg/mL (≈ 55.5 µM)
body temperature, t = 0 min ([3]; 100 mg/kg orally): 37.22 ± 0.05
body temperature, t = 90 min ([3]; 100 mg/kg orally): 36.80 ± 0.05
body temperature, t = 180 min ([3]; 100 mg/kg orally): 36.85 ± 0.05
body temperature, t = 270 min ([3]; 100 mg/kg orally): 36.81 ± 0.05
body temperature, t = 0 min ([3]; 150 mg/kg orally): 37.30 ± 0.06
body temperature, t = 90 min ([3]; 150 mg/kg orally): 36.50 ± 0.05
body temperature, t = 180 min ([3]; 150 mg/kg orally): 36.59 ± 0.05
body temperature, t = 270 min ([3]; 150 mg/kg orally): 36.55 ± 0.05
t, time to peak plasma level after parent compound [4]: ~2 h
Peak plasma concentration after parent compound [4]: 0.1 mg/L
LD50 [5]: 1500 mg/kg
In vitro penetration rate (apparent flux), parent compounds [6]: <1 μg/cm^2/h
